Molecules are shown by their SMILES. Where only a bound is given, the exact number is not on record here.

This note sets out measurements from US12110293B2, “Substituted triazolo quinoxaline derivatives” (GRÜNENTHAL GMBH, priority 2018, dated 2024).

In this assay the target is T1, glucocorticoid receptor (Homo sapiens, UniProt P04150).
T1 construct: expressed in transfected cells
T1 sequence (P04150 524-758 limits assumed): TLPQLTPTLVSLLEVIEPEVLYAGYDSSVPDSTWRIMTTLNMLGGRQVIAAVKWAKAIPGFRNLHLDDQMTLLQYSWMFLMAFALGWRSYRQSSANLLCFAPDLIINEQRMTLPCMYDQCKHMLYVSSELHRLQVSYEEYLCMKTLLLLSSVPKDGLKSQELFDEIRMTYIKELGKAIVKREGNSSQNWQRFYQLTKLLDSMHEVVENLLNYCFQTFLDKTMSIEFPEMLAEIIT
Briefly: Agonistic mode of action on the glucocorticoid receptor (CHO-Gal4/GR luciferase reporter cell line). It counts as cell-based. The following applies: range class observed in the agonistic assay or the antagonistic assay (CHO-Gal4/GR reporter cells); table does not say which mode applies per example. An outline of the steps:
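CHO cells stably carrying GAL4 DBD–GR ligand-binding-domain fusion and GAL4-UAS firefly luciferase reporter, 5000 cells/well grown 24 h, then compounds added in Opti-MEM at 8 half-log concentrations from 10 μM to 0.003 μM (0.5% DMSO), quadruplicates. Agonist-induced luminescence read on FLIPR Tetra; EC50 calculated.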
(In general: A reporter such as luciferase makes a cellular process visible.)

As for `Cc1cc2c(c(C)c1-c1cc(F)cc3c1cnn3S(C)(=O)=O)-n1c(C)nnc1C(C)(C)N2` [Example 373, 8-(6-Fluoro-1-methylsulfonyl-1H-indazol-4-yl)-1,4,4,7,9-pentamethyl-5H-[1,2,4]triazolo[4,3-a]quinoxaline], the IC50 or EC50 (agonist or antagonist mode not specified) was in the range of 100 to 1000 nM.
For `Cc1c(-c2cccc3c(C)c[nH]c23)c(Cl)cc2c1-n1c(C)nnc1C(C)(C)N2` [Example 358, 7-Chloro-1,4,4,9-tetramethyl-8-(3-methyl-1H-indol-7-yl)-5H-[1,2,4]triazolo[4,3-a]quinoxaline] the value was under 100 nM; for `COc1c(-c2cccc3[nH]ncc23)c(F)cc2c1-n1c(C)nnc1C(C)(C)N2` [Example 490, 7-Fluoro-8-(1H-indazol-4-yl)-9-methoxy-1,4,4-trimethyl-5H-[1,2,4]triazolo[4,3-a]quinoxaline], 100 to 1000 nM; for `Cc1c(-c2cccc3c2ccn3CC(F)F)c(OC(F)F)cc2c1-n1c(C)nnc1C(C)(C)N2` [Example 384, 8-[1-(2,2-Difluoro-ethyl)-1H-indol-4-yl]-7-(difluoro-methoxy)-1,4,4,9-tetramethyl-5H-[1,2,4]triazolo[4,3-a]quinoxaline], 1000 to 15000 nM.
Compound `Cc1nnc2n1-c1c(cc(F)c(-c3cccc4c(C#N)c[nH]c34)c1C(F)(F)F)NC2(C)C` [Example 89, 7-(7-fluoro-1,4,4-trimethyl-9-(trifluoromethyl)-4,5-dihydro-[1,2,4]triazolo[4,3-a]quinoxalin-8-yl)-1H-indole-3-carbonitrile] returned an IC50 or EC50 (agonist or antagonist mode not specified) of 100 to 1000 nM.
The same measure for `Cc1nnc2n1-c1c(cc(F)c(-c3cc(F)cc4c3cnn4CC(F)F)c1C(F)F)NC2(C)C` [Example 472, 8-[1-(2,2-Difluoro-ethyl)-6-fluoro-1H-indazol-4-yl]-9-(difluoro-methyl)-7-fluoro-1,4,4-trimethyl-5H-[1,2,4]triazolo[4,3-a]quinoxaline]: under 100 nM; for `Cc1c(-c2ccc(F)c3[nH]ccc23)c(F)cc2c1-n1c(C)nnc1C(C)(C)N2` [Example 504, 7-Fluoro-8-(7-fluoro-1H-indol-4-yl)-1,4,4,9-tetramethyl-5H-[1,2,4]triazolo[4,3-a]quinoxaline]: 100 to 1000 nM.
For `Cc1c(-c2ccc(Cl)c3c2ccn3S(C)(=O)=O)c(F)cc2c1-n1c(C)nnc1C(C)(C)N2` [Example 525, 8-(7-Chloro-1-methylsulfonyl-1H-indol-4-yl)-7-fluoro-1,4,4,9-tetramethyl-5H-[1,2,4]triazolo [4,3-a]quinoxaline] the value was 100 to 1000 nM; for `COCCn1ccc2c(-c3c(OC)cc4c(c3C(F)(F)F)-n3c(C)nnc3C(C)(C)N4)cccc21` [Example 334, 7-Methoxy-8-[1-(2-methoxy-ethyl)-1H-indol-4-yl]-1,4,4-trimethyl-9-(trifluoromethyl)-5H-[1,2,4]triazolo[4,3-a]quinoxaline], 1000 to 15000 nM.
For `Cc1nnc2n1-c1c(cc(F)c(-c3cccc4c3cnn4C(=O)OC(C)(C)C)c1F)NC2(C)C` [Example 238, 4-(7,9-Difluoro-1,4,4-trimethyl-5H-[1,2,4]triazolo[4,3-a]quinoxalin-8-yl)-1H-indazole-1-carboxylic acid tert-butyl ester] the value was 100 to 1000 nM; for `Cc1c(-c2cccc3c2ccn3CC(F)F)c(Cl)cc2c1-n1c(C)nnc1C(C)(C)N2` [Example 327, 7-Chloro-8-[1-(2,2-difluoro-ethyl)-1H-indol-4-yl]-1,4,4,9-tetramethyl-5H-[1,2,4]triazolo[4,3-a]quinoxaline], 100 to 1000 nM; for `CC#Cc1c[nH]c2c(-c3c(F)cc4c(c3C)-n3c(COC)nnc3C(C)(C)N4)cc(F)cc12` [Example 76, 7-fluoro-8-(5-fluoro-3-(prop-1-yn-1-yl)-1H-indol-7-yl)-1-(methoxymethyl)-4,4,9-trimethyl-4,5-dihydro-[1,2,4]triazolo[4,3-a]quinoxaline], under 100 nM.
